This is an account of results in patent US10656162B2, “Use of glu-tubulin as a biomarker of drug response to furazanobenzimidazoles” (Basilea Pharmaceutica AG, priority 2011, dated 2020).

What all share (type): cell-based, human
The test system of one assay is A549 NSCLC cells. The assay is described as follows: Immunofluorescent staining of microtubules, A549. As to conditions: A549, 24 hours; 50 nM BAL27862, 80 nM Compound B, 20 nM Compound C; anti-alpha-tubulin staining. On the procedure:
A549 human non-small cell lung cancer (NSCLC, ATCC reference number CCL-185) cells, HeLa cervical cancer cells (ATCC reference number CCL-2) and SKBR3 breast carcinoma cells (ATCC reference number HTB-30) were seeded at densities of 50% on round microscope coverslips and cultured for 24 hours in RPMI-1640 containing 10% FCS (also referred to as FBS) at 37° C., 5% CO2. Compounds to be tested were dissolved in DMSO. The cell culture medium was replaced with medium containing the diluted compound(s) (paclitaxel, vinblastine, colchicine and nocodazole were purchased from Sigma-Aldrich) or vehicle. After treatment for the times indicated in the Brief Description of the Figures, coverslips were washed and cells were fixed in methanol/acetone (1:1) for 5 minutes at room temperature and subsequently incubated in blocking buffer (0.5% BSA and 0.1% TX-100 in PBS) for 30 minutes at room temperature. Specimens were then incubated with anti-alpha-tubulin (Sigma, 1:2000) for 1 hour at room temperature in blocking buffer. After several washing steps cells were incubated with AlexaFluor-488 goat-anti-mouse IgG (Molecular Probes, 1:3000) for 1 hour at room temperature followed by several washing steps with blocking buffer. Specimens were then mounted with ProLong Gold antifade (Molecular Probes, sealed with nail polish and examined with a Leica immunofluorescence microscope. Images were captured with a cooled CCD-camera and processed by ImageJ software.

The subject of assay [1] is H460 BAL27862-resistant cell line variant. As to the kind of experiment: Crystal Violet assay, BAL27862-resistant H460 versus parental line. As to conditions: H460, 72 hours, Crystal Violet. The text has this: (§1) BAL27862-resistant sublines of human non-small cell lung cancer (H460 ATCC reference HTB-177; A549 ATCC reference CCL-185), ovarian cancer (SKOV3 ATCC reference HTB-77) lines were generated by long-term selection in complete cell culture medium (RPMI-1640 containing 10% FCS; Sigma-Aldrich) by stepwise increasing concentrations of BAL27862. […] The resistant sublines were expanded at the highest tolerated BAL27862 concentration and subsequently frozen and stored in liquid nitrogen.
(§2) After medium was removed, cells were fixed and stained by adding 50 μl Crystal Violet Staining (0.2% Crystal Violet in 50% Methanol) per well. Plates were incubated for 1 hour at room temperature. Subsequently the stain was decanted and plates were washed 4 times with double-distilled water. Plates were air-dried for several hours. Stain was dissolved by adding 100 μl buffer (0.1 M Tris pH 7.5, 0.2% SDS, 20% Ethanol) per well and shaking the plates. Absorbance at 590 nm was measured using a SpectraMax M2e plate reader (Molecular Devices). Anti-proliferative IC50 values were calculated from concentration response curves using GraphPad Prism software. Resistance factors were calculated as a ratio of BAL27862 IC50 in the resistant line variant versus the IC50 in the parental line.

Assay [2] concerns A549 BAL27862-resistant cell line variant. The assay is described as follows: Crystal Violet assay, BAL27862-resistant A549 versus parental line. Conditions: A549, 72 hours, Crystal Violet.
Source text: as §1, §2

A further assay has as its system SKOV3 resistant 2. As to the kind of experiment: Crystal Violet assay, SKOV3 resistant 2 versus parental line. Conditions: SKOV3 resistant 2, 72 hours, Crystal Violet.
Source text: as §1, §2

Another assay concerns SKOV3 resistant 1. The assay is described as follows: Crystal Violet assay, SKOV3 resistant 1 versus parental line. Conditions: SKOV3 resistant 1, 72 hours, Crystal Violet.
Source text: as §1, §2

For assay [3], the system named is CXF 1103 patient-derived colorectal tumour. The assay is described as follows: Colony outgrowth assay, CXF 1103. Conditions: CXF 1103, colorectal cancer, ex vivo colony outgrowth. As for the experimental part: (§3) Single cell suspensions of patient-derived tumour xenografts (maintained in nude mice) were prepared. For colony outgrowth assays, cells were plated in soft agar in 24-well plates according to the assay introduced by Hamburger & Salmon (Primary bioassay of human tumour stem cells, Science, 1977.197:461-463). 2×10^4-6×10^4 cells in 0.2 mL medium containing 0.4% agar were plated out on a bottom layer of 0.75% agar. Test compounds were applied in 0.2 mL culture medium. Every 24-well plate contained untreated controls and samples in triplicates. Cultures were incubated at 37° C. and 7.5% CO2 for 5-28 days. 24 hours prior to analysis, vital colonies were stained with a solution of metabolisable tetrazolium salt (Alley M C et al, Life Sci. 1982, 31:3071-3078) and were counted with an automatic image analysis system (Omnicon 3600, Biosys GmbH).
(§4) Relative drug effects were expressed by the ratio of the mean number of colonies in the treated wells and the control wells. IC70-values were determined by plotting compound concentrations versus relative colony counts.

Assay [4] relates to LXFE 211 Patient-derived lung tumour. As to the kind of experiment: Colony outgrowth assay, LXFE 211. Also noted: key to Response to compound (BAL27862, paclitaxel, vinblastine): Sensitive: BAL27862-sensitive tumour cells have IC70 values in the low nanomolar range; Resistant: BAL27862-resistant tumour cells are defined by IC70 values >600 nanomolar. As to conditions: LXFE 211, lung cancer, ex vivo colony outgrowth. On the procedure:
as §3, §4

In assay [5] the test system is CXF 243 patient-derived colorectal tumour. The assay is described as follows: Colony outgrowth assay, CXF 243. Also noted: key to Response to compound (BAL27862, paclitaxel, vinblastine): Sensitive: BAL27862-sensitive tumour cells have IC70 values in the low nanomolar range; Resistant: BAL27862-resistant tumour cells are defined by IC70 values >600 nanomolar. Conditions: CXF 243, colorectal cancer, ex vivo colony outgrowth. As for the experimental part: as §3, §4

Assay [6] relates to MEXF 276 patient-derived melanoma. As to the kind of experiment: Colony outgrowth assay, MEXF 276. Conditions: MEXF 276, melanoma, ex vivo colony outgrowth. On the procedure:
as §3, §4

Assay [7] relates to MEXF 1341 patient-derived melanoma. The assay is described as follows: Colony outgrowth assay, MEXF 1341. Conditions: MEXF 1341, melanoma, ex vivo colony outgrowth. On the procedure: as §3, §4

On to `Nc1ccc(C(=O)Cn2c(-c3nonc3N)nc3ccccc32)cc1` [Compound B, 2-[2-(4-Amino-furazan-3-yl)-benzoimidazol-1-yl]-1-(4-amino-phenyl)-ethanone], for which the “Microtubule phenotype of mitotic or G2/M arrested cells” value in the assay on A549 NSCLC cells was “highly reproducible and distinct microtubule phenotype”.
In the case of `COc1cc2c(c(OC)c1OC)-c1ccc(OC)c(=O)cc1[C@@H](NC(C)=O)CC2` [Colchicine, colchicine], the “Resistance factors (ratio of IC50 BAL27862-resistant cell line variant and IC50 parental cell line)” value in [1] was found to be 1.6; in [2], 0.9; with SKOV3 resistant 2 it was 2.8; in the assay with SKOV3 resistant 1, 2.0.
On to `COC(=O)Nc1nc2ccc(C(=O)c3cccs3)cc2[nH]1` [Nocodazole, nocodazole], for which the “Resistance factors (ratio of IC50 BAL27862-resistant cell line variant and IC50 parental cell line)” value in assay [1] is on record as 1.3; in assay [2], 1.6; in the assay on SKOV3 resistant 2, 3.9; in the assay on SKOV3 resistant 1 it was 3.6.
On to `CC(=O)O[C@H]1C(=O)[C@@]2(C)[C@H]([C@H](OC(=O)c3ccccc3)[C@]3(O)C[C@H](OC(=O)[C@H](O)[C@@H](NC(=O)c4ccccc4)c4ccccc4)C(C)=C1C3(C)C)[C@]1(OC(C)=O)CO[C@@H]1C[C@@H]2O` [Paclitaxel, paclitaxel], for which the “Resistance factors (ratio of IC50 BAL27862-resistant cell line variant and IC50 parental cell line)” value in [1] worked out at 0.3; in [2] it was 0.06; in the assay with SKOV3 resistant 2, 0.5; in the assay with SKOV3 resistant 1, 0.4. Also, the “Response to compound (BAL27862, paclitaxel, vinblastine)” value in assay [3], in assay [4] and in assay [5] was “Resistant (BAL27862-resistant tumour cells are defined by IC70 values >600 nanomolar)” throughout.
In the case of `CC[C@]1(O)C[C@@H]2CN(CCc3c([nH]c4ccccc34)[C@@](C(=O)OC)(c3cc4c(cc3OC)N(C)[C@H]3[C@@](O)(C(=O)OC)[C@H](OC(C)=O)[C@]5(CC)C=CCN6CC[C@]43[C@@H]65)C2)C1` [Vinblastine, vinblastine, reference compound], the “Response to compound (BAL27862, paclitaxel, vinblastine)” value is “Sensitive” in assay [6]; “Sensitive” in assay [7]; “Resistant (BAL27862-resistant tumour cells are defined by IC70 values >600 nanomolar)” in assay [3]; “Sensitive” in [4]; “Sensitive” in [5]. Moreover, the “Resistance factors (ratio of IC50 BAL27862-resistant cell line variant and IC50 parental cell line)” value in [1] was 4.6; in [2], 2.3; in the assay with SKOV3 resistant 1, 15.7.
`N#CCCNc1nonc1-c1nc2ccccc2n1CC(=O)c1ccc(N)nc1` [Compound C, 3-(4-{1-[2-(6-Amino-pyridin-3-yl)-2-oxo-ethyl]-1H-benzoimidazol-2-yl}-furazan-3-ylamino)-propionitrile]: the “Microtubule phenotype of mitotic or G2/M arrested cells” value in the assay on A549 NSCLC cells was “highly reproducible and distinct microtubule phenotype”.
